Reference: paper PMC10739591, “mCherry on Top: A Positive Read-Out Cellular Platform for Screening DMD Exon Skipping Xenopeptide–PMO Conjugates” (Bioconjugate Chemistry, 2023)

Tested on: DMD exon 23
Assay: Splicing modulation in vivo (DMD exon 23 skipping, nested RT-PCR ex vivo)
Conditions: BALB/c mice, i.v., 375 µg PMO, 48 h after injection
Method: 6-week-old female BALB/c mice (BALB/cByJRj, Janvier, Le Genest-Saint-Isle, France) were housed in isolated ventilated cages under pathogen-free conditions with a 12 h light/dark interval. The mice were acclimated for 7 days prior to treatments. Water and food were provided ad libitum. For splice switching in the physiological DMD gene, PMO formulations were prepared 48 h before intravenous injection, as described above. The freeze-dried PMO formulations were reconstituted with HBG to obtain a concentration of 375 μg PMO per 150 μL. The mice were randomly divided into three groups (n = 6 for PMO(Ex23)-1395, and n = 5 for free 3′ primary amine-modified PMO(Ex23) and PMO(705)-1395). 150 μL of PMO solution was injected intravenously into a lateral tail vein. 48 h after injection, the mice were euthanized and the brain, spleen, quadriceps femoris muscle, kidneys, liver, lung, and heart were harvested. For stabilization of the mRNA, the organs were incubated in RNAlater solution (Thermo Fisher Scientific, Waltham) overnight at 4 °C and afterward stored at −20 °C. Each organ was manually homogenized using a mortar and pestle and liquid nitrogen. […]
The final PCR products were analyzed by agarose gel electrophoresis (2% agarose gel; 100 V; 2 h). Individual band intensities were quantified and put into relation to the band of full-length DMD-Ex20–24 with a size of 633 bp by using ImageJ software.

## PMO(Ex23): PMO GGCCAAACCTCGGCTTACCTGAAAT with 3'-primary amine; targets donor splice site of DMD intron 23 (PMO, 3'-primary amine, chemistry not fully specified)
  DMD exon 23 skipping in skeletal muscle (quadriceps femoris): predominant splice-switching activity in the skeletal muscle
